Values belong to the molecule of their own block, whether it stands above or below them.
Experiments:
[1] = no stabilizer; cited from earlier work
[2] = Stabilization of aqueous Dow Corning 5772 siloxane solutions by polyols, clarity monitored over time; type: physicochemical
Experimental: However, those skilled in the art will recognize that for practicality and commercial applications, the longer the period for which a stable composition can be achieved the better. Accordingly, a stock of solutions of known concentrations of the stabilizer is prepared in deionized water. A known amount of the solution, and in some cases additional deionized water and the siloxane were mixed in a vial. The vial was sealed with parafilm to prevent evaporation, and stored at ambient temperature.

[3] = 5% siloxane solution with 0.94% to 19% polyol, ambient temperature

SMILES: CCCCCCCCCCCCCCCCCC[N+](C)(C)CCC[Si](OC)(OC)OC.[Cl-] [3-(trimethoxysilyl)propyl-dimethyloctadecyl ammonium chloride]
- time until mixture with water begins to lose effectiveness [1]: four to eight

- time solution remained clear ([2]; 10% siloxane solution with 0.85% to 17% L-ascorbic acid): at least five
- clarity of solution after two days ([2]; as much as 18% siloxane with as little as 0.79% L-ascorbic acid): remained clear
SMILES: O=C1O[C@H]([C@@H](O)CO)C(O)=C1O [L-ascorbic acid]

SMILES: O=CC=O [glyoxal]
- time solution remained clear ([2]; 9% siloxane with 4.1% to 18% glyoxal, aqueous): at least three

- time solution remained clear [2, 3]: seven
- solubility of polyol in the siloxane solution ([2]; high mannitol concentration, 5% siloxane solution): not completely soluble
SMILES: OC[C@@H](O)[C@@H](O)[C@H](O)[C@H](O)CO [mannitol]

- time solution remained clear [2, 3]: at least seven
- time solution remained clear ([2]; another sample at approximately 5% active siloxane): at least eight
SMILES: OC[C@H]1O[C@@](CO)(O[C@H]2O[C@H](CO)[C@@H](O)[C@H](O)[C@H]2O)[C@@H](O)[C@@H]1O [sucrose]

- stabilization of siloxane solution ([2]; tannic acid siloxane solution): not stabilized to any significant degree
SMILES: O=C(OC[C@H]1O[C@@H](OC(=O)c2cc(O)c(O)c(OC(=O)c3cc(O)c(O)c(O)c3)c2)[C@H](OC(=O)c2cc(O)c(O)c(OC(=O)c3cc(O)c(O)c(O)c3)c2)[C@@H](OC(=O)c2cc(O)c(O)c(OC(=O)c3cc(O)c(O)c(O)c3)c2)[C@@H]1OC(=O)c1cc(O)c(O)c(OC(=O)c2cc(O)c(O)c(O)c2)c1)c1cc(O)c(O)c(OC(=O)c2cc(O)c(O)c(O)c2)c1 [tannic acid]
